Drawing on ChEMBL document CHEMBL1158916, “2-O-alpha-D-galactopyranosyl glycerol hexaacetate from Ruellia brittoniana” (J Nat Prod, 1990), this text covers Activity for one molecule.

This series deals with Rattus norvegicus. Nature of the series: Toxicity in anesthetized rat assessed as increase in mean arterial pressure at 100 ug/kg. The series is classed as organism-based, Artery. The following applies: in vivo, 0.1 mg/kg.

With `CC(=O)OCC(COC(C)=O)O[C@H]1O[C@H](COC(C)=O)[C@H](OC(C)=O)[C@H](OC(C)=O)[C@H]1OC(C)=O`, the Activity entry is on record as “Toxic”.
